The values below come from patent publication US20080161336A1, “Orally bioavailable CCI-779 formulations” (Wyeth, priority 2005, published 2008).

A short description of data set [1]: Partition coefficient in 1-octanol/water system. The data set is classed as physicochemical.
A short description of data set [2]: Stability of CCI-779 (aqueous, oxidation, hydroalcoholic granulation solution). The data set is classed as physicochemical. From the text:
One obstacle towards the formulation of CCI-779 is its poor aqueous dissolution and low oral bioavailability. […] A CCI-779 formulation was developed that employed a wet granulation manufacturing process. See US Published Patent Application No. US-2004-0077677-A1. This process involved preparation of a hydroalcoholic granulation solution of CCI-779. Further, although the resulting tablets were stable and bioavailable, the preparation of the hydroalcoholic solution was very tedious.

Data set [3] can be described thus: Bioavailability study: safety (adverse events, laboratory abnormalities, vital signs). Format: in vivo, human.
Description: On day 1 of each of the 3 study periods, the subjects received a single oral dose of 1 of 4 treatments (treatments A, B, C, or reference).
On day 1 of each of the 3 study periods, the subjects received a single oral dose of 1 of 4 treatments (A, B, C, or reference).
Another data set can be described thus: Water solubility. The data set is classed as physicochemical.
The test system of data set [4] is histologically diverse tumor cells. The note with it: in vitro, cited from earlier work.
A short description of data set [5]: BCS classification system. The data set is classed as physicochemical.

SMILES strings stand for the structures.

The solubility is the concentration that dissolves in the medium under given conditions. A low value points to little dissolved substance.

`COC1C[C@@H]2CC[C@@H](C)[C@@](O)(O2)C(=O)C(=O)N2CCCC[C@H]2C(=O)O[C@H]([C@H](C)CC2CC[C@@H](OC(=O)C(C)(CO)CO)[C@H](OC)C2)CC(=O)[C@H](C)/C=C(\C)[C@@H](O)[C@@H](OC)C(=O)[C@H](C)C[C@H](C)/C=C/C=C/C=C/1C` (stereo partly drawn) [CCI-779, Rapamycin 42-ester with 3-hydroxy-2-(hydroxymethyl)-2-methylpropionic acid]: in data set [1], the “Log PC” value is reported as no less than 4.1. In addition, in data set [2], the aqueous stability entry is listed as “aqueous instability”. Also, the “stability of hydroalcoholic granulation solution of CCI-779” value in data set [2] (after its preparation) is given as “precipitating within one day”. Further, the “severity of treatment-emergent AEs” value in data set [3] (all 45 treatment-emergent AEs) is on record as “mild”. Moreover, the “subjects with aminotransferase elevations” value in data set [3] (all treatments, 4 subjects) came out at 10%. For the same compound, the “subjects with white blood cells in the urine” value in data set [3] (all treatments, 5 subjects) was 13%. Besides, the “deaths or other serious adverse events” value in data set [3] (during the study) is “No deaths or other serious adverse events occurred”. Besides, in data set [3] (in vivo), the “vital sign measurements, electrocardiogram results, physical examination findings” value is on record as “No clinically significant trends”. Moreover, the “subjects with clinically significant laboratory abnormalities after dose administration” value in data set [3] (number of subjects, all treatments) came to 13. Also, the “AEs considered by the investigator to be related to CCI-779 treatment” value in data set [3] (number of the 45 AEs) is on record as 16. The “subjects with at least 1 treatment-emergent adverse event (AE)” value in data set [3] (of the 40 subjects who received CCI-779, all treatments) came out at 48%. Moreover, in the data set “Water solubility”, the solubility was less than 1 µg/mL. Besides, the “growth of tumor cells” value in data set [4] (CNS cancer, leukemia (T-cell), breast cancer, prostate cancer, melanoma lines among the most sensitive) is on record as “inhibit the growth”. The cell cycle effect result in data set [4] is reported as “arrested cells in the G1 phase”. In addition, the BCS classification result in data set [5] was “class II”.
